Test results as given in patent publication US12029682B2, “Spray ejector mechanisms and devices providing charge isolation and controllable droplet charge, and low dosage volume ophthalmic administration” (EYENOVIA, INC., priority 2012, dated 2024).
“Also recorded” adds a separate entry of the source.

Assays:
Assay type in all cases: in vivo, beagle dog
glaucomatous beagles [1] = test: Pupil diameter (PD), Jameson Caliper, in glaucomatous beagles
glaucomatous beagles [2] = test: Intraocular pressure (IOP), TonoVet, in glaucomatous beagles
glaucomatous beagles [3] = test: as above; details: including control of morning IOP spike
Description: (§1) One glaucomatous beagle dog (female, aged 3 years) from the University of Florida MacKay Colony of Glaucomatous Beagles was chosen for this study. The animal was rested a minimum of one week before starting the study. Prior to the commencement of the study, the animal was assigned one eye to receive 1.5 μl of 0.005% latanoprost and the contralateral eye to remain untreated as a control. The basic measurement protocol was followed at all times and performed by the same operator. PD was measured via Jameson Caliper (mm horizontally). IOP was measured using a TonoVet instrument with clean probe (iCare). IOP and PD were measured at time 0, 1, 2, 4, 7 and 18 hours daily for two days. Immediately after the time 0 measurement, the animal received 1.5 μl of 0.005% latanoprost in its assigned eye with a spray device. The contralateral eye was left untreated. The spray device was checked for accuracy before and after every use, and required a 10% delivered dose accuracy in pretreatment. Standard measurements continued throughout each day at time 1, 2, 4, 7 and 18 hours. Possible endpoints included, but were not limited to, excessive ocular irritation, ocular damage, and other illness or injury. No statistical crossover was utilized for this study.
as §1, with “study.” for “study. The animal was rested a minimum of one week before starting the study.”, “receive 3.0” for “receive 1.5”, “0 measurements,” for “0 measurement,”, “animal was administered 3.0” for “animal received 1.5”, “eye using” for “eye with”, “spray ejector” for “spray”
All animals were rested for a minimum of one week before starting the trials. IOP and pupil diameter (PD) were measured 5 times (at 0, 1, 2, 4, and 7 hours) daily for four days (study days 1-4) to establish initial baseline levels. The basic measurement protocol was followed at all times and performed by the same operator. PD was measured via Jameson Caliper (mm horizontally). IOP was measured with a TonoVet instrument with clean probe (iCare). After three rest days, one eye was randomly assigned to receive 9 μl of 0.005% latanoprost delivered via a spray ejector device, and the contralateral eye was administered traditional latanoprost from a traditional eyedropper container (26-30 μl).
On study days 5-9, IOP and PD measurements were taken at approximately 0900 h (time 0). Immediately after time 0 measurements, each animal received a once-daily dose of 9 μl of generic 0.005% latanoprost in its assigned eye via the spray ejector device. The contralateral eye received a clinical dose (one drop) of the same commercially available topical drug from a traditional eyedropper (positive control). The spray ejector device was checked for accuracy before and after every use and required a 10% delivered dose accuracy in pretreatment. Standard measurements continued throughout each day at 0, 1, 2, 4, and 7 hours. Possible endpoints included, but were not limited to, excessive ocular irritation, ocular damage, and other illness or injury. No statistical crossover was utilized for this study. […]

glaucomatous beagles [4] = test: Ocular irritation observations in glaucomatous beagles
Description: Active drug delivery begins on study day eight. For five days, IOP and PD measurements are taken at 0900. Immediately after 0900 measurements (time 0), each animal receives 6 μl of generic latanoprost in its assigned eye with the ejector device, followed by a second dosing 3 minutes later of an additional 6 μl (to avoid overloading the conjunctival sac). The contralateral eye receives a clinical dose (one drop) of the same commercially-available topical drug from FDA approved container (positive control). The ejector device is checked for accuracy before and after every use (Table 1). Standard measurements continue throughout each day (at 0:30, 0:45, 1, 2, 7 hrs). Possible endpoints include, but are not limited to, excessive ocular irritation, ocular damage, or other illness and injury. […]
On study days 5-9, IOP and PD measurements were taken at approximately 0900 h (time 0). Immediately after these measurements, each animal received 6 μl of 0.03% bimatoprost in its assigned eye via the spray ejector device. The contralateral eye received a clinical dose (one drop) of the same commercially available topical drug from a traditional eyedropper (positive control). The spray ejector device was checked for accuracy before and after every use and required a 10% delivered dose accuracy in pretreatment. Standard measurements continued throughout each day at 0, 1, 2, 4, and 7 hours. Possible endpoints included, but were not limited to, excessive ocular irritation, ocular damage, and other illness or injury. No statistical crossover was utilized for this study.
Ophthalmic examinations (slit lamp with fluorescein and indirect ophthalmoscopy) were performed on the eyes of each animal prior to Study Day 1. Ocular findings were scored according to the McDonald-Shadduck Score System. Ocular findings were recorded using a standardized data collection sheet. Macroscopic observations were recorded in accordance with the Draize Scale for Scoring Ocular Lesions. Animals were assigned treatments based on basic randomization prior to study day one.
Following a 7 day rest period, the eye choice was reversed. Measurements of IOP, heart rate and pupil diameter (PD) were made at 0:15, 0:30, 0:45, 1, 2, 4, 7, and 18 hours in the primary and crossover study. A veterinary ophthalmologist evaluated each test subject before and after the study for evidence of ocular side effects.
Ophthalmic examinations (slit lamp with fluorescein and indirect ophthalmoscopy) were performed on the eyes of each animal prior to study day 1. Ocular findings were scored according to the McDonald-Shadduck score system and macroscopic observations were recorded in accordance with the Draize scale for scoring ocular lesions. Ocular findings were recorded using a standardized data collection sheet.

[5] = 0.0005%, 0.002%, positively charged, 3 mcl
[6] = 9 μl of 0.004% via spray ejector device, study day 1

SMILES: CC(C)OC(=O)CCC/C=C\C[C@@H]1[C@@H](/C=C/[C@@H](O)COc2cccc(C(F)(F)F)c2)[C@H](O)C[C@@H]1O [travoprost]
- decrease of pupillary diameter compared to uncharged droplets (glaucomatous beagles [1]; [5]): less decrease of pupillary diameter
- maximum miosis (glaucomatous beagles [1]; 9 μl of 0.004% via spray ejector device, at time 12 hours): 1.17 mm
- time of significant PD changes (glaucomatous beagles [1]; [6]): 12 h
- IOP lowering compared to uncharged droplets (glaucomatous beagles [2]; [5]): greater IOP lowering
- IOP values vs baseline (glaucomatous beagles [2]; 0.004%, both treatments (18 μl spray ejector device, eyedropper)): much lower than baseline for a full 24 hours
- IOP lowering compared to uncharged droplets (glaucomatous beagles [2]; 0.004%, positively and negatively charged): greater IOP lowering
- IOP lowering (glaucomatous beagles [2]; 3 microliters, 0.002% and 0.0005%, spray ejector device with controllable droplet charge): greater IOP lowering
- spray ejector device vs micropipette treatment (glaucomatous beagles [2]; 9 μl of 0.004% each, throughout the study (p=0.7546)): no statistically significant differences
- highest average daily peak IOP (glaucomatous beagles [2]; 9 μl of 0.004% via spray ejector device, after 5 days of treatment): 18.83 mmHg
- time of significant changes in IOP from baseline (glaucomatous beagles [2]; [6]): 12 h
- post-treatment IOP (glaucomatous beagles [2]; 18 μl morning or evening dose via spray ejector device / traditional therapy): below 20 mmHg
- effectiveness at lowering/controlling IOP vs traditional therapy (glaucomatous beagles [2]; 18 μl of 0.004% once daily, morning or evening, via spray ejector device vs one drop (average 26 μl)): as effective at lowering IOP and constricting the pupil as the traditional therapy; also recorded: as effective at controlling IOP as traditional therapy
- difference in duration of IOP lowering, spray ejector device vs eyedropper (glaucomatous beagles [2]; 18 μl of 0.004% vs one drop): not significant
- duration of IOP lowering (glaucomatous beagles [2]; controllable droplet charge spray administration, 1xqd@hs dosing): full 24 hour IOP lowering
- lowering of IOP over a 24 hour period compared with other prostaglandin agonists studied (glaucomatous beagles [3]): most effective of the prostaglandin agonists studied
- excessive eye irritation or other eye issues (glaucomatous beagles [4]; 9 μl of 0.004%, spray ejector device and micropipette): no reports of excessive eye irritation or other eye issues
- irritation vs eyedropper-treated eyes (glaucomatous beagles [4]; 18 μl of 0.004% via spray ejector device): less than that observed in the eyedropper-treated eyes
